The test system of assay [1] is TOV-21G cells. The experiment in a line: Cell proliferation of TOV-21G cells, crystal violet staining. It counts as cell-based. The note with it: seven days, Compound B (2 μM) and/or epothilone B (4 nM). The procedure: The cells were then stained with crystal violet (hexamethyl pararosaniline chloride) dye. The crystal violet dye was extracted in 10% v/v acetic acid, and absorbance was measured in triplicate at a wavelength of 540 nm on a spectrophotometer (FIG. 2B).

Assay [2] deals with TOV-21G cells. The assay is described as follows: Multipolar spindle formation in TOV-21G cells (DAPI, NuMA, α-tubulin staining). In kind it is cell-based. The note with it: 24 hours, 2 μM Compound B combined with 0.5 nM epothilone B vs single agents. The protocol: The cells were then stained with DAPI (to label DNA) and antibodies for α-tubulin and the spindle pole marker NuMA.
Cells in mitosis were then manually counted and scored for the presence of normal bipolar spindles or abnormal multipolar spindles. The frequency of cells with multipolar spindles was determined and scored in at least 100 cells from each treatment condition.

The record followed here is patent US11998546B2, “Pharmaceutical combinations comprising a histone deacetylase inhibitor and epothilone and methods of use thereof” (ACETYLON PHARMACEUTICALS, INC., priority 2016, dated 2024).

`O=C(CCCCCCNC(=O)c1cnc(N(c2ccccc2)c2ccccc2Cl)nc1)NO` [Compound B, 2-((2-chlorophenyl)(phenyl)amino)-N-(7-(hydroxyamino)-7-oxoheptyl)pyrimidine-5-carboxamide]: the “inhibition of tumor cell proliferation (crystal violet absorbance at 540 nm)” value in assay [1] is reported as “inhibition of tumor cell proliferation by Epotholine B was enhanced”. The “frequency of cells with multipolar mitotic spindles” value in assay [2] is “enhanced the multipolar spindle formation induced by epothilone”.
